Measurements reported in patent US8242166B2, “C(10) ethyl ester and C(10) cyclopropyl ester substituted taxanes” (Florida State University Research Foundation, Inc., priority 2008, dated 2012).
“And” between values parts separate entries of the source, which are not always exact repeats. Equal entries are not always repeated. Where two headings read alike, the source gives them in different places.

Tests used:
[1] = test system: PANC-1; experiment: MTT cytotoxicity (IC50), PANC-1; assay type: cell-based; settings: Homo sapiens, 72 h, read-out: IN Vitro IC50 (nm) Panc
Description: (§1) Compound 17932 was tested in four of these cell lines, while the remaining compounds were tested in all of these cell lines. All cell lines were maintained in RPMI-1640 tissue culture medium (TCM, supplemented with antibiotics and 10% fetal bovine serum) and cultured at 37° C. in humidified air containing 5% CO2. To assess the antiproliferative effects of the test compounds, 172 μL of tumor cell suspension (1.45×10^4 cells/ml) were added to each well of a 96-well plate and incubated for 24 h at 37° C. in 5% CO2 in air to allow cells to adhere. Seven 2-fold drug dilutions in TCM/DMSO were performed in triplicate in separate 96-well plates and 28 μL was transferred to the wells containing tumor cells (200 μL final volume/0.1% DMSO). Plates were incubated for 72 h and cell viability was determined by adding 50 μL of warm TCM containing 5 mg/mL MTT (3-[4,5-dimethylthiazol-2-yl]-2,5-diphenyltetrazolium bromide) to each well and incubating for 1 h at 37° C. Plates were processed and the absorbances of the resulting solutions were measured by a plate reader at 570 nm. […] (GraphPad Prism version 4.00 for Windows). Studies were conducted by Taxolog, Inc., Tallahassee, Fla.

[2] = test system: human BxPC-3 human pancreatic xenograft; assay type: in vivo; settings: for optimal T/C % value: at D53; for T/C % values: from D33
Description: Method: Twenty four (24) hours after a whole body irradiation with a γ-source (7.0 Gy, Co^60, INRA, Dijon, France) 20×10^6 BxPC-3 cells in 200 μl of RPMI 1640 culture medium were subcutaneously injected in the right flank of 8 female Nude rats to generate tumor material. When the tumor size reaches approximately 1,000 mm^3, the tumors were surgically excised for implantation into recipient Nude female rats. Twenty four (24) hours after a whole body irradiation (7.0 Gy, Co^60, INRA, Dijon, France), fresh BxPC-3 tumor fragments were sc implanted in the right flank of 52 Nude female rats (1 fragment/rat) at D0 using surgical pliers and skin was stitched. The antitumor activity study was started at D21 when the mean tumor volume has reached 321.6±131.2 mm^3. Before the start of treatments, 42 tumor bearing rats out of 52 grafted were randomized into 7 groups of 6 animals.
[…]. At 7 mg/kg/inj, only two treatments were performed at D21 and D42 due to severe body weight loss.

[3] = test system: HT29; experiment: MTT cytotoxicity (IC50), HT29; assay type: cell-based; settings: Homo sapiens, HT-29, 72 h, read-out: IN Vitro IC50 (nm) HT29
Description: as §1

[4] = test system: TK-10; experiment: MTT cytotoxicity (IC50), TK-10; assay type: cell-based; settings: Homo sapiens, 72 h, read-out: IN Vitro IC50 (nm) TK10
Description: as §1

[5] = test system: HCT116; experiment: MTT cytotoxicity (IC50), HCT116; assay type: cell-based; settings: Homo sapiens, HCT-116, 72 h, read-out: IN Vitro IC50 (nm) HCT116
Description: as §1, with “All” for “Compound 17932 was tested in four of these cell lines, while the remaining compounds were tested in all of these cell lines. All”

[6] = test system: HT29 human tumor xenografts; experiment: HT29 xenograft study e139 (Example 23); assay type: in vivo, nude mice; settings: for Number of Death NTR / Number of Death TR: N=6
[7] = test system: human MX-1 breast carcinoma; experiment: MX1 xenograft study e219R1, i.v. single dose (Example 17); settings: for CR (complete regression) / NTR (non-treatment-related death) / PR (partial regression) / TFS (tumor-free survivor) / TR (treatment-related death): n=5; for minimal effective dose: iv qd × 1, lowest dose with statistically significant results and at least one D61 survivor or regression

CC(=O)O[C@@]12CO[C@@H]1C[C@H](O)[C@@]1(C)C(=O)[C@H](OC(=O)C3CC3)C3=C(C)[C@@H](OC(=O)[C@H](O)[C@@H](NC(=O)OC4CCC4)c4cccs4)C[C@@](O)([C@@H](OC(=O)c4ccccc4)C12)C3(C)C (stereo partly shown) [Compound 18365]
IC50 [1]: 1200 pM | wt loss ([2]; 5 mg/kg): 16.9% | tolerability of repeated IV treatments ([2]; 5 mg/kg/inj): not well tolerated | mean doubling time (DT) of tumors ([2]; 5 mg/kg/inj IV, repeated): 24.7 ± 10.4 days | time to reach volume (T to V) of 1,000 mm^3 ([2]; 5 mg/kg/inj IV, repeated): 64.3 ± 16.3 days | body weight loss ([2]; 5 mg/kg/inj IV, at D33): −16.9±6.1% | optimal T/C % value ([2]; 5 mg/kg/inj IV): 11.0% | animals with complete tumor regression ([2]; 5 mg/kg/inj IV, at D81 (final sacrifice), 6 rats per group): two | T/C % values ([2]; 5 mg/kg/inj IV): lower than 42% | tolerability of repeated IV treatments ([2]; 7 mg/kg/inj): not tolerated | rats out of six alive at the end of the study ([2]; 7 mg/kg/inj IV): one | MBWC D21-D26 ([2]; 7 mg/kg/inj IV, after the first treatment): −16.5±7.2% | optimal T/C % value ([2]; 7 mg/kg/inj IV): 13.2% and 8.9% | T/C % values ([2]; 7 mg/kg/inj IV): lower than 42% | antitumor activity ([2]; repeated IV injections at 5 and 7 mg/kg/inj): marked antitumor activity | IC50 [3]: 500 pM | IC50 [4]: 500 pM | IC50 [5]: 400 pM | 61-day survivors ([6]; 25 mg/kg i.v. q4d×4, six mice): five | CR responses ([6]; 25 mg/kg i.v. q4d×4, six mice): 2 | PR responses ([6]; 25 mg/kg i.v. q4d×4, six mice): 4 | Day 51 mm^3 (tumor size) ([6]; 25 mg/kg iv q4d × 4): 112.8 mm^3 | Day 54 mm^3 (tumor size) ([6]; 25 mg/kg iv q4d × 4): 124.7 mm^3 | Max. BW Loss %; Day ([6]; 25 mg/kg iv q4d × 4): −17.1%; Day 16 | Number of Death NTR ([6]; 25 mg/kg iv q4d × 4): 0 | Number of Death TR ([6]; 25 mg/kg iv q4d × 4): 1 | % TGD ([7]; 7.5 mg/kg iv qd × 1): 12.92% | BW Nadir ([7]; 7.5 mg/kg iv qd × 1): −3.8% (4) | Median TTE ([7]; 7.5 mg/kg iv qd × 1): 36.29 days | T-C ([7]; 7.5 mg/kg iv qd × 1): 4.15 days | activity (statistical significance) ([7]; 7.5 mg/kg iv qd × 1): non-significant activity | CR (complete regression) ([7]; 7.5 mg/kg iv qd × 1): 0 | NTR (non-treatment-related death) ([7]; 7.5 mg/kg iv qd × 1): 0 | PR (partial regression) ([7]; 7.5 mg/kg iv qd × 1): 0 | TFS (tumor-free survivor) ([7]; 7.5 mg/kg iv qd × 1): 0 | TR (treatment-related death) ([7]; 7.5 mg/kg iv qd × 1): 0 | % TGD ([7]; 15 mg/kg iv qd × 1): 76.26% | BW Nadir ([7]; 15 mg/kg iv qd × 1): −6.8% (5) | MTV (n), Day 60 ([7]; 15 mg/kg iv qd × 1): 1098.50 (1) mm^3 | Median TTE ([7]; 15 mg/kg iv qd × 1): 56.65 days | T-C ([7]; 15 mg/kg iv qd × 1): 24.51 days | maximum group mean BW loss ([7]; 15 mg/kg iv qd × 1): 6.8% | CR (complete regression) ([7]; 15 mg/kg iv qd × 1): 2 | NTR (non-treatment-related death) ([7]; 15 mg/kg iv qd × 1): 0 | PR (partial regression) ([7]; 15 mg/kg iv qd × 1): 1 | TR (treatment-related death) ([7]; 15 mg/kg iv qd × 1): 0 | % TGD ([7]; 30 mg/kg iv qd × 1): 89.79% | BW Nadir ([7]; 30 mg/kg iv qd × 1): −16.0% (5) | MTV (n), Day 60 ([7]; 30 mg/kg iv qd × 1): 0.00 (5) mm^3 | Median TTE ([7]; 30 mg/kg iv qd × 1): 61 days | T-C ([7]; 30 mg/kg iv qd × 1): 28.86 days | maximum group mean BW loss ([7]; 30 mg/kg iv qd × 1): 16% | CR (complete regression) ([7]; 30 mg/kg iv qd × 1): 5 | NTR (non-treatment-related death) ([7]; 30 mg/kg iv qd × 1): 0 | PR (partial regression) ([7]; 30 mg/kg iv qd × 1): 0 | TFS (tumor-free survivor) ([7]; 30 mg/kg iv qd × 1): 5 | TR (treatment-related death) ([7]; 30 mg/kg iv qd × 1): 0 | minimal effective dose [7]: 15 mg/kg

CCC(=O)O[C@H]1C(=O)[C@@]2(C)C([C@H](OC(=O)c3ccccc3)[C@]3(O)C[C@H](OC(=O)[C@H](O)[C@@H](NC(=O)OC4CCCC4)c4cccs4)C(C)=C1C3(C)C)[C@]1(OC(C)=O)CO[C@@H]1C[C@@H]2O (stereo partly shown) [Compound 18926]
IC50 [1]: 500 pM | IC50 [3]: 400 pM | IC50 [4]: 300 pM | IC50 [5]: 300 pM | MTV (Day 61) ([6]; 20 mg/kg i.v. q4d×4): 83 mm^3 | PR responses ([6]; 20 mg/kg i.v. q4d×4, six mice): 5 | Day 51 mm^3 (tumor size) ([6]; 20 mg/kg iv q4d × 4): 142.3 mm^3 | Day 54 mm^3 (tumor size) ([6]; 20 mg/kg iv q4d × 4): 147 mm^3 | Max. BW Loss %; Day ([6]; 20 mg/kg iv q4d × 4): −20.7%; Day 16 | Number of Death NTR ([6]; 20 mg/kg iv q4d × 4): 0 | Number of Death TR ([6]; 20 mg/kg iv q4d × 4): 0 | % TGD ([7]; 7.5 mg/kg iv qd × 1): 16.46% | BW Nadir ([7]; 7.5 mg/kg iv qd × 1): −7.6% (3) | Median TTE ([7]; 7.5 mg/kg iv qd × 1): 37.43 days | T-C ([7]; 7.5 mg/kg iv qd × 1): 5.29 days | activity (statistical significance) ([7]; 7.5 mg/kg iv qd × 1): non-significant activity | maximum group mean BW loss ([7]; 7.5 mg/kg iv qd × 1): 7.6% | CR (complete regression) ([7]; 7.5 mg/kg iv qd × 1): 0 | NTR (non-treatment-related death) ([7]; 7.5 mg/kg iv qd × 1): 0 | PR (partial regression) ([7]; 7.5 mg/kg iv qd × 1): 0 | TFS (tumor-free survivor) ([7]; 7.5 mg/kg iv qd × 1): 0 | TR (treatment-related death) ([7]; 7.5 mg/kg iv qd × 1): 0 | % TGD ([7]; 15 mg/kg iv qd × 1): 89.79% | BW Nadir ([7]; 15 mg/kg iv qd × 1): −6.6% (4) | MTV (n), Day 60 ([7]; 15 mg/kg iv qd × 1): 0.00 (4) mm^3 | Median TTE ([7]; 15 mg/kg iv qd × 1): 61 days | T-C ([7]; 15 mg/kg iv qd × 1): 28.86 days | maximum group mean BW loss ([7]; 15 mg/kg iv qd × 1): 6.6% | CR (complete regression) ([7]; 15 mg/kg iv qd × 1): 4 | NTR (non-treatment-related death) ([7]; 15 mg/kg iv qd × 1): 0 | PR (partial regression) ([7]; 15 mg/kg iv qd × 1): 0 | TFS (tumor-free survivor) ([7]; 15 mg/kg iv qd × 1): 4 | TR (treatment-related death) ([7]; 15 mg/kg iv qd × 1): 0 | % TGD ([7]; 30 mg/kg iv qd × 1): 89.79% | BW Nadir ([7]; 30 mg/kg iv qd × 1): −15.5% (5) | MTV (n), Day 60 ([7]; 30 mg/kg iv qd × 1): 0.00 (5) mm^3 | Median TTE ([7]; 30 mg/kg iv qd × 1): 61 days | T-C ([7]; 30 mg/kg iv qd × 1): 28.86 days | maximum group mean BW loss ([7]; 30 mg/kg iv qd × 1): 15.5% | CR (complete regression) ([7]; 30 mg/kg iv qd × 1): 5 | NTR (non-treatment-related death) ([7]; 30 mg/kg iv qd × 1): 0 | PR (partial regression) ([7]; 30 mg/kg iv qd × 1): 0 | TFS (tumor-free survivor) ([7]; 30 mg/kg iv qd × 1): 5 | TR (treatment-related death) ([7]; 30 mg/kg iv qd × 1): 0 | minimal effective dose [7]: 15 mg/kg
